Entries after “also recorded” stand apart in the source; their conditions may differ. Where two headings read alike, the source gives them in different places.
Key:
Mtr LpqY [1] = molecular target: T1, Mtr LpqY (Mycolicibacterium thermoresistibile, UniProt G7CES0); assay: Thermal shift assay (SYPRO Orange) of potential ligands; format: binding, Mycobacterium thermoresistible; conditions: ligand 10 mM; for ΔTm: Mtr LpqY 2.6 μM, shift relative to protein alone (Tm 66.0 °C), no unit in table, °C
Mtr LpqY [2] = molecular target: T1, Mtr LpqY; assay: Saturation transfer difference (STD) NMR; format: binding, Mycobacterium thermoresistible; conditions: protein 25 μM, ligand 1 mM, PBS D2O pH 7.4, 288 K
Description: However, despite numerous efforts, we were unable to obtain a crystal structure of Mtr LpqY in complex with 6-azido-trehalose. Therefore, to further our understanding into the mode of ligand binding, the binding epitope of 6-azido-trehalose with Mtr LpqY was determined in solution by saturation transfer difference (STD) NMR experiments, as described in the Methods section.
All the STD NMR experiments were performed in PBS D2O buffer, pH 7.4. […] STD NMR spectra were acquired on a Bruker Avance 500.13 MHz at 288 K. The on- and off-resonance spectra were acquired using a train of 50 ms Gaussian selective saturation pulses using a variable saturation time from 0.5 s to 5 s, and a relaxation delay (D1) of 4 s. The water signal was suppressed using the watergate technique ([41]), whereas the residual protein resonances were filtered using a T1ρ-filter of 40 ms. All the spectra were acquired with a spectral width of 8 kHz and 24K data points using 512 scans. The on-resonance spectra were acquired by saturating at 0.80 (aliphatic hydrogens) or 7.20 ppm (aromatic hydrogens), as average chemical shifts predicted from shiftX2 ([42]) for the aliphatic and aromatic residues present in the binding site of Mtr LpqY, whereas the off-resonance spectra were acquired by saturating at 40 ppm. […]

Mtr LpqY [3] = molecular target: T1, Mtr LpqY; assay: Microscale thermophoresis (MST), wild-type protein; format: binding, Mycobacterium thermoresistible; conditions: for Kd: 21 °C, wild-type Mtr LpqY 500 nM, mean ± SEM, at least three experiments
mycobacteria = tested on: mycobacteria; design: method as in PMID 22978752; conditions: cited from earlier work

T1 sequence (G7CES0 29-471): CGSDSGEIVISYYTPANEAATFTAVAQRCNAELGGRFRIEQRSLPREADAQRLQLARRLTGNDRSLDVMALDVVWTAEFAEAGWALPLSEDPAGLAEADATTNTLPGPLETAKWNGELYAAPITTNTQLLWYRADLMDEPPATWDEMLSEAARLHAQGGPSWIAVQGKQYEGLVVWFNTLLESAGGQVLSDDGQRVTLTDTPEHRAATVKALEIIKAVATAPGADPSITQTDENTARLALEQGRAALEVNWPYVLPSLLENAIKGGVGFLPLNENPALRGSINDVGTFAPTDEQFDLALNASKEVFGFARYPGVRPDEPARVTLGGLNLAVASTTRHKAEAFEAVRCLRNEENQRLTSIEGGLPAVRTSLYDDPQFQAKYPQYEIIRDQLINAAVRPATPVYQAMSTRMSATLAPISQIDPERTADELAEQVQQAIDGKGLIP

SMILES | ΔTm (Mtr LpqY [1]) | Recognition in the thermal shift screen (in words) (Mtr LpqY [1]) | further results
OCC1O[C@H](O[C@H]2OC(CO)[C@H](O)[C@H](O)C2O)C(O)[C@@H](O)[C@H]1O (stereo partly drawn) [Galactotrehalose, α-D-galactopyranosyl-(1→1)-α-D-glucopyranoside] | 6.1 ± 0.6 | – | –
OC[C@H]1O[C@H](O[C@H]2O[C@H](CO)[C@@H](O)[C@H](O)[C@H]2O)[C@@H](O)[C@@H](O)[C@@H]1O [Mannotrehalose, α-D-mannopyranosyl-(1→1)-α-D-glucopyranoside] | 5.9 ± 0.3 | – | –
OC[C@H]1O[C@H](O[C@H]2[C@H](O)[C@@H](CO)OC(O)[C@@H]2O)[C@H](O)[C@@H](O)[C@@H]1O (stereo partly shown) [Nigerose] | 5.1 ± 0.1 | reduced ΔTm shifts | –
C[N+](C)(C)CCOP(=O)([O-])OC[C@H](O)CO [glycerophosphocholine] | – | did not observe binding | –
OC[C@H]1O[C@H](O[C@H]2O[C@H](CO)[C@@H](O)[C@H](O)[C@H]2O)[C@H](O)[C@@H](O)[C@@H]1O [Trehalose, α-D-glucopyranosyl-α-D-glucopyranoside] | – | – | Binding by STD NMR (Mtr LpqY [2]): Binding was confirmed
OC[C@H]1O[C@@H](O[C@H]2O[C@H](CO)[C@@H](O)[C@H](O)[C@H]2O)[C@H](O)[C@@H](O)[C@@H]1O [α,β-trehalose] | 3.7 ± 0.1 | – | –
OC[C@H]1O[C@H](O[C@H]2[C@H](O)[C@@H](O)C(O)O[C@@H]2CO)[C@H](O)[C@@H](O)[C@@H]1O (mixture of isomers) [maltose] | – | reduced ΔTm shifts; also recorded: inability | –
OC[C@H]1OC(O)[C@H](O)[C@@H](O)[C@@H]1O (stereo partly shown) [glucose] | – | no influence on the ΔTm | –
[N-]=[N+]=N[C@@H]1[C@@H](O)[C@@H](O[C@H]2O[C@H](CO)[C@@H](O)[C@H](O)[C@H]2O)O[C@H](CO)[C@H]1O [3-azido-3-deoxy-trehalose] | 6.7 ± 0.2 | – | Kd (Mtr LpqY [3]; read-out: Kd): 475 ± 17.2 µM; Import into the cytosol of mycobacteria (mycobacteria): is not
OC[C@H]1O[C@H](O[C@H]2C(O)O[C@H](CO)[C@@H](O)[C@@H]2O)[C@H](O)[C@@H](O)[C@@H]1O (stereo partly shown) [Kojibiose] | 7.9 ± 0.2 | reduced ΔTm shifts | Fold reduction in binding affinity (increase in Kd) compared with trehalose (Mtr LpqY [3]): ~30 fold; Kd (Mtr LpqY [3]; read-out: Kd): 2350 ± 123 µM
NC[C@H]1O[C@H](O[C@H]2O[C@H](CO)[C@@H](O)[C@H](O)[C@H]2O)[C@H](O)[C@@H](O)[C@@H]1O [6-amino-6-deoxy-trehalose, 6-amino-6-deoxy-α,α′-trehalose] | 7.0 ± 0.1 | – | –
OC[C@H]1O[C@H](OC[C@H]2OC(O)[C@H](O)[C@@H](O)[C@@H]2O)[C@H](O)[C@@H](O)[C@@H]1O (stereo partly shown) [Isomaltose] | 4.1 ± 0.2 | reduced ΔTm shifts | –
[N-]=[N+]=N[C@H]1[C@@H](O[C@H]2O[C@H](CO)[C@@H](O)[C@H](O)[C@H]2O)O[C@H](CO)[C@@H](O)[C@@H]1O [2-azido-2-deoxy-trehalose, 2-azido-2-deoxy-α,α′-trehalose] | 1.7 ± 0.1 | only a minor shift | Kd (Mtr LpqY [3]; read-out: Kd): 1916 ± 7.7 µM; Import into the cytosol of mycobacteria (mycobacteria): imported and found in the cytosol
O=P(O)(O)OC[C@H]1O[C@H](O[C@H]2O[C@H](CO)[C@@H](O)[C@H](O)[C@H]2O)[C@H](O)[C@@H](O)[C@@H]1O [Trehalose-6-phosphate] | 3.7 ± 0.2 | – | –
[N-]=[N+]=N[C@H]1[C@H](O)[C@@H](O)[C@@H](O[C@H]2O[C@H](CO)[C@@H](O)[C@H](O)[C@H]2O)O[C@@H]1CO [4-azido-4-deoxy-trehalose, 4-azido-4-deoxy-α,α′-trehalose] | 10.2 ± 0.1 | comparable to trehalose | Kd (Mtr LpqY [3]; read-out: Kd): 247 ± 7.1 µM; Import into the cytosol of mycobacteria (mycobacteria): imported and found in the cytosol
[N-]=[N+]=NC[C@H]1O[C@H](O[C@H]2O[C@H](CO)[C@@H](O)[C@H](O)[C@H]2O)[C@H](O)[C@@H](O)[C@@H]1O [6-azido-6-deoxy-trehalose, 6-azido-6-deoxy-α,α′-trehalose] | – | – | Kd (Mtr LpqY [3]; Kd): 443 ± 5.3 µM; Binding by STD NMR (Mtr LpqY [2]): Binding was confirmed; Import into the cytosol of mycobacteria (mycobacteria): imported and found in the cytosol

From publication PMC7949145 (The Journal of Biological Chemistry, 2021)
